Read-outs that look alike come from different tables or passages of the source. Residues, ends and D or L forms follow the SMILES beside them. *: point of attachment. Cbz = O=C(OCc1ccccc1)*
Legend:
ATF6 = ATF6 activation in HeLa cells, immunoblotting; details: HeLa cells expressing Flag-tagged ATF6
Method: (E) HeLa cells expressing Flag-tagged ATF6 were treated with the indicated chemicals. Cell extracts were analyzed by immunoblotting. (F) HeLa cells expressing Flag-tagged ATF6 were treated with the indicated chemicals and stained with Flag antibodies. N, nucleus. Arrows indicate the position of the Golgi.

JEKO-1 cells = test: Combination treatment of EerI and BH3 mimetic, MTT viability; details: 48 h
Method: Cell viability was measured by the MTT assay. […] JEKO-1 cells were treated with the indicated compounds for 48 h. Cell viability was measured by the MTT assay.

GFPμ = test: Degradation of GFPμ in astrocytoma cells, immunoblot; assay type: cell-based; details: 12 h
Method: […]. Astrocytoma cells expressing HA-tagged GFPμ were treated with the indicated chemicals (12 h). The steady state levels of GFPμ in whole cell extracts (WCE) were analyzed by immunoblotting (IB). Where as indicated, GFPμ was first immunoprecipitated before immunoblotting analyses.
Since a large portion of p97 is localized in the cytosol, it may be involved in degradation of misfolded cytosolic proteins. In fact, GFPμ, a model proteasomal substrate (Bence et al., 2005) appeared to be degraded in a p97 dependent manner, because the expression of a dominant negative p97 mutant stabilized this substrate in part as a p97-associated form (data not shown).

[1] = test system: polyubiquitinated proteins; test: Accumulation of polyubiquitinated proteins in treated cells, immunoblot; assay type: cell-based; details: for accumulation of polyubiquitinated proteins in cells: EerI and structurally related analogues, FIG. 12C, D
NOXA = NOXA protein level by immunoblotting; assay type: cell-based; details: variety of cancer and transformed cell lines
Method: . […] Protein extracts were analyzed by immunoblotting. […] (D) NOXA knock-down cells.
; FIG. 16; data not shown).

primary CLL cells = test: MTT viability assay, primary CLL samples; assay type: cell-based; details: 3 days
Method: Experiments for FIGS. 1-5 were conducted in vitro by keeping cell lines in RPMI medium with 10% FCS and primary cells in AIM V medium. Cells were seeded into 96 well plates at a concentration of 4×10e5/ml for cell lines at a concentration of 5×10e6/mL for primary cells. Cells were incubated for 2 days (cell lines) or 3 days (primary samples) in the indicated concentration of drug (bortezomib from commercial clinical grade stock; EER1 provided by Dr. Ye and Dr. Trenkle). Viability was determined using the standard MTT assay. Synergy calculations were carried out with Calcusyn software.

[2] = test system: MHC class I heavy chain (HC); test: Degradation of MHC class I heavy chain in US11-expressing astrocytoma (A9) cells, fractionation and immunoblot; assay type: cell-based
Method: . […] The cells were permeabilized in a buffer containing 0.028% of digitonin, and fractionated into a pellet fraction containing the ER membranes and a supernatant fraction containing the cytosol (Shamu et al., 1999; Ye et al., 2001, 2003). HC was immunoprecipitated from detergent extracts of these fractions under denaturing condition, and analyzed by immunoblotting (Shamu et al., 1999; Wang et al., 2006). […] As a positive control, A9 cells were treated with MG132, a proteasome inhibitor. […] However, a significant fraction of HC accumulated in MG132-treated cells was non-ubiquitinated species with its N-linked glycan removed by a cytosolic N-glycanase (Hirsch et al., 2003; Blom et al., 2004). The accumulation of non-modified substrates upon inhibition of the proteasome function has been observed for many proteasomal substrates, and was generally attributed to deubiquitination by cytosolic DUBs. […]

JEKO cells = test: mRNA expression of BH3-domain proteins by quantitative RT-PCR
Method: The precipitated RNA was further purified by a RNA clean-up kit (Qiagen). The purified RNA was quantified, and used as template to synthesize cDNA. The expression of various genes was then determined by quantitative RT-PCR.

[3] = test system: recombinant retrovirus that expresses a GFP reporter gene; test: Production of recombinant GFP retrovirus in GP293 packaging cells; assay type: cell-based; details: unidentified retrovirus, medium collected 36 hours later, GFP fluorescence in target cells, read-out: IC50 for inhibition of production of recombinant retrovirus
Method: […]. Infection was allowed to proceed for 10 hours before the medium was replaced with fresh medium. The expression of the GFP protein as a result of viral infection was measured by a fluorescence meter. […]. The IC50 was ˜3 uM.

eIF2α = eIF2α phosphorylation by immunoblotting; details: JEKO-1 cells
[4] = test system: p97-associated deubiquitination (PAD); test: In vitro deubiquitination of p97-bound substrates immunoprecipitated from treated cells; details: for effect on PAD: p97 complexes from treated cells
Method: To study PAD, a previously established in vitro deubiquitination assay was used. p97 and its associated substrates immunoprecipitated from cell extracts were incubated in vitro.

TCRα-GFP = test: Degradation of overexpressed TCRα-GFP, immunoblot
MHC class I heavy chain = details: permeabilized US11 cells
Xbp1 mRNA = Xbp1 mRNA splicing by RT-PCR; details: JEKO-1 cells
atx3 = test: In vitro atx3-dependent deubiquitination of immunoprecipitated atx3-substrate complexes; assay type: biochemical; details: for effect on atx3-mediated deubiquitination when added to purified atx3-substrate complex: added in vitro; for deubiquitination of atx3-bound ubiquitin conjugates from treated cells: complex isolated from treated cells, compared with control cells

Compound: O[C@H](CS)[C@H](O)CS (racemic) [DTT, dithiothreitol, reference compound]
- ATF6 cleavage (ATF6): rapidly induced the cleavage of ATF6

Compound: CC(C)C(C(=O)O)N1C(=O)/C(=C\c2ccc(Br)cc2)SC1=S (stereo not drawn) [BH3i-1, reference compound]
- toxicity as a single agent in MCL cells (JEKO-1 cells): did not induce significant toxicity

Compound: CC1(C)C(N(O)C(=O)Nc2ccc(Cl)cc2)N(c2ccc(Cl)cc2)C(=O)N1CC(=O)N/N=C/C=Cc1ccc([N+](=O)[O-])o1 (stereo not drawn) [EERI, 1-(4-chloro-phenyl)-3-[3-(4-chloro-phenyl)-5,5-dimethyl-1-[3-(5-nitro-furan-2-yl)-allyldiene-hydrazinocarbonylmethyl]-2-oxo-imidazolidin-4-yl]-1-hydroxyl-urea]
- form of GFPμ in treated cells (GFPμ): present almost exclusively as polyubiquitinated form
- time after treatment at which cells start to accumulate polyubiquitinated proteins [1]: ~1.5 h
- amount of polyubiquitinated proteins accumulated for a given time period ([1]; 293T cells, FIG. 6D): more polyubiquitinated proteins than MG132-treated cells
- accumulation of polyubiquitinated proteins in cells [1]: accumulation of polyubiquitinated proteins
- effect of presence of EerI on cytotoxicity of the BH3 mimetic (JEKO-1 cells): strongly enhanced its cytotoxicity
- level of NOXA protein (NOXA): rapidly increased
- activity against primary CLL cells (primary CLL cells): highly active
- polyubiquitinated HC in the cytosol [2]: polyubiquitinated HC was accumulated in the cytosol
- mRNA expression of BH3-domain proteins Noxa, Bim and Puma (JEKO cells): significantly induced
- IC50 [3]: ~3000 nM
- eIF2α phosphorylation (eIF2α): induced eIF2α phosphorylation
- effect on PAD [4]: blocks deubiquitination reactions associated with p97
- reduction of p97-bound polyubiquitinated substrates after in vitro incubation ([4]; substrates isolated from treated cells, non-treated cells ~60%): ~10%
- polyubiquitinated TCRα-GFP (TCRα-GFP): accumulated polyubiquitinated TCRα-GFP
- retrotranslocation and degradation of MHC class I heavy chain on addition to permeabilized cells (MHC class I heavy chain): did not inhibit
- splicing of Xbp1 mRNA (Xbp1 mRNA): induced the splicing of Xbp1
- ATF6 cleavage (ATF6): no increase in ATF6 cleavage
- activity of atx3 purified from treated cells on exogenously added ubiquitin oligomers (Ub2-7) (atx3; DMSO- vs EerI-treated cells): equally active
- effect on atx3-mediated deubiquitination when added to purified atx3-substrate complex (atx3): had no effect
- deubiquitination of atx3-bound ubiquitin conjugates from treated cells (atx3): more resistant to deubiquitination

Compound: CC1(C)C(N(O)C(=O)Nc2cccc3ccccc23)N(c2cccc3ccccc23)C(=O)N1CC(=O)N/N=C/C=Cc1ccc([N+](=O)[O-])o1 (stereo not drawn) [Eeyarestatin II, 1-[5,5-dimethyl-3-naphthalen-1-yl-1 [3-(5-nitro-furan-2-yl)-allyldiene-hydrazinocarbonylmethyl]-2-oxo-imidazolidin-4-yl]-3-naphthalen-1-yl-1-hydroxyl-urea]
- accumulation of polyubiquitinated proteins in cells [1]: accumulation of polyubiquitinated proteins

Compound: CC(C)C[C@@H](C=O)NC(=O)[C@H](CC(C)C)NC(=O)[C@H](CC(C)C)NC(=O)OCc1ccccc1 [MG132, reference compound] (Cbz-Leu-Leu-Leu-aldehyde)
- form of GFPμ in treated cells (GFPμ): mostly accumulated in the deubiquitinated form
- polyubiquitinated HC in the cytosol ([2]; A9 cells, 10 μM): accumulation of polyubiquitinated HC in the cytosol
- effect on PAD [4]: did not apparently block PAD
- polyubiquitinated TCRα-GFP (TCRα-GFP): polyubiquitinated TCRα-GFP was accumulated
- deubiquitination of atx3-bound ubiquitin conjugates from treated cells (atx3): rapidly deconjugated

Compound: CC(C)C[C@H](NC(=O)[C@H](Cc1ccccc1)NC(=O)c1cnccn1)B(O)O [bortezomib, reference compound]
- mRNA expression of BH3-domain proteins Noxa, Bim and Puma (JEKO cells): only induces the expression of Noxa

Compound: ubiquitin aldehyde [reference compound]
- effect on atx3-mediated deubiquitination when added to purified atx3-substrate complex (atx3): inhibited

From patent US8637560B2, “Imidazolidinone compounds, methods to inhibit deubiquitination and methods of treatment” (The United States of America as Represented by the …, priority 2007, dated 2014)
